{"source": "patent US9637451B2", "about": "“Indole compound” (ASTELLAS PHARMA INC., priority 2014, dated 2017)", "key": {"SD female rats": {"tested_on": "SD female rats", "test": "Effect of test compound on urethral pressure in anesthetized rats", "assay_type": "in vivo, rat", "conditions": "dose of 0.01 mg/kg", "text": "SD female rats were anesthetized with urethane and subjected to laparotomy. Then, the bladder apex was incised and a catheter was inserted from the bladder apex. Further, the catheter tip was ligated and fixed to be located in the proximal urethra portion. The catheter was connected to a pressure transducer and an infusion pump. Further, a catheter for administrating the compound was fitted into the femoral vein. Physiological saline was continuously infused into the urethra and the perfusion pressure in the urethra was measured. After the urethral pressure was stabilized, the test compound that had been dissolved in physiological saline, or physiological saline including 5% dimethylacetamide and 0.5% Cremophor was administered intravenously at 0.01 mg/kg or 0.1 mg/kg, and a change in urethral pressures was measured.\nFurther, the results of administering an active metabolite of midodrine (ST-1059: purchased from CHEMIZON) (J. Urology, 118, 980-982 (1977)) which is an α1 adrenoceptor agonist and is confirmed to have a clinical effect on stress urinary incontinence at doses, 0.01 mg/kg and, 0.1 mg/kg in rats, presumed to correspond to the clinical doses are referenced and shown in the Tables below.\nThe increment value in the urethral pressures of ramelteon and the Example compounds of the present invention at the time of administration are shown in Table 3. Ex represents Example No. of the test compound and N.T represents Not Tested."}, "[1]": {"test": "CSF-to-plasma unbound concentration ratio in rat after intravenous administration", "assay_type": "in vivo", "conditions": "CSF and plasma (unbound), iv, 15 minutes after intravenous administration, fp by ultracentrifugation method"}, "human MT2 receptor": {"target": "T1, human MT2 receptor (Homo sapiens, UniProt P49286)", "T1 construct": "expressed in transfected cells", "T1 sequence (P49286 1-362)": "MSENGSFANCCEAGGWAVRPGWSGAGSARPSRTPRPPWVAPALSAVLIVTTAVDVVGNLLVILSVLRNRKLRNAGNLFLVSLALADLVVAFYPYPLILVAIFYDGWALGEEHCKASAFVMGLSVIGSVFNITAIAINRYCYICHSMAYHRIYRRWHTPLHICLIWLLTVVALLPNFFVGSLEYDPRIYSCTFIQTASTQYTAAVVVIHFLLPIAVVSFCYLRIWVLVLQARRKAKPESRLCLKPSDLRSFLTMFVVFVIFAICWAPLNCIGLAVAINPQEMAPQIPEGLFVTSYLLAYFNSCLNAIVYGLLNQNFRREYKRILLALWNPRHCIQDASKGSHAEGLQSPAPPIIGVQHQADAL", "test": "Activation of human MT2 receptor in receptor-expressing cells, intracellular Ca2+ by FLIPR", "assay_type": "cell-based"}, "[2]": {"test": "Brain-to-plasma concentration ratio in rat after intravenous administration", "assay_type": "in vivo", "conditions": "brain and plasma, 15 minutes after intravenous administration", "method": "At 15 minutes after intravenously administration of the test compound to the rats, the plasma and brain were collected. A 50% acetonitrile solution and an acetonitrile including internal standard material were added to the collected plasma. The collected brain was added to a 2-fold volume of PBS and homogenized. A 50% acetonitrile solution and an acetonitrile including internal standard material were added to the brain homogenate. The sample was centrifuged at 4° C. and 2150×g for 10 minutes, the supernatant was measured by LC-MS/MS, and the total concentration of the test compound in the brain (Cbrain) and the total concentration of the test compound in the plasma (Cplasma,t) were obtained. The brain-to-plasma concentrations ratio (Kp,brain) was calculated by the following equation.\nThe Kp,uu,CSF values and the Kp,brain values of ramelteon and some Example compounds of the present invention are shown in Table 4. Ex represents Example No. of the test compound. Unless otherwise specified, the Kp,uu,CSF was calculated using the fp values determined by an ultracentrifugation method. Further, N.T. represents Not Tested."}}}
{"smiles": "CC(=O)NCCc1c[nH]c2cc(F)c(OCCOc3ccn(C)n3)cc12", "note": "[Example 6, N-[2-(6-fluoro-5-{2-[(1-methyl-1H-pyrazol-3-yl)oxy]ethoxy}-1H-indol-3-yl)ethyl]acetamide]", "values": [{"measurement": "urethral pressure increasing action", "setting": "SD female rats", "value": "good urethral pressure increasing action"}, {"measurement": "Kp uu at 0.25 h", "setting": "[1]", "value": 0.06}, {"measurement": "EC50", "setting": "human MT2 receptor; HEK293 cells stably expressing human MT2 and Gq/i chimeric G protein, Ca2+ FLIPR", "value": 10, "unit": "nM"}, {"measurement": "Emax", "setting": "human MT2 receptor; maximum reaction by ramelteon taken as 100%", "value": 119, "unit": "%"}, {"measurement": "Kp at 0.25 h", "setting": "[2]", "value": 0.09}]}
